The values below come from article PMC3124649 (Journal of medicinal chemistry, 2011).

The conditions of data set [1]: administered after food; cited from earlier work.
Data set [2] has as its system anaerobic bacteria. In words: Activity against anaerobes.
Another data set relates to CYP isozymes. Put plainly: CYP inhibition panel. Type of data set: in vitro ADME.
Data set [3] has as its system HBV replication (extracellular virion HBV DNA). Put plainly: HBV virion. It is filed as cell-based, hepatitis B virus. The conditions noted are these: for activity against HBV (in words): 2.2.15 cells.
Another data set can be described thus: Plasma protein binding. Type of data set: in vitro ADME. The conditions noted are these: ADME/Tox studies.
Data set [4] is described as follows: Stability in human blood and plasma. The conditions noted are these: one hour incubation. It is filed as in vitro ADME.
Another data set is described as follows: Rat PK study. It is filed as in vivo.
A further data set in a line: Dog PK study. It is filed as in vivo.
A further data set concerns HCV. Particulars: cited from earlier work.
The test system of data set [5] is anaerobic bacteria. The conditions noted are these: cited from earlier work.
For data set [6] the following is noted: cited from earlier work.
For data set [7] the following is noted: cited from earlier work. This is another data set of the same source.

Where only a bound is given, the exact number is not on record here.

On to `CC(=O)Oc1ccccc1C(=O)Nc1ncc([N+](=O)[O-])s1` [Compound 1, nitazoxanide], for which the oral bioavailability entry in data set [1] was “about 50%”.
`O=C(Nc1ncc(Cl)s1)c1ccccc1O` [Compound 3, 2-Hydroxybenzoyl-N-(5-chlorothiazol-2-yl) amide]: the activity against anaerobes result in the data set with anaerobic bacteria [2] was “inactive”. Moreover, in the data set on CYP isozymes, the drug-drug interactions entry was “nor does it show unfavourable drug-drug interactions” and the “effects against a panel of CYPs” value was “no adverse effects”.
For `Cc1cccc(C(=O)Nc2ncc(Cl)s2)c1O` [Compound 11], the “activity against HBV (in words)” value in [3] is “essentially inactive”.
`Cc1ccc(O)c(C(=O)Nc2ncc(Cl)s2)c1` [Compound 12, 2-Hydroxy-5-methylbenzoyl-N-(5-chlorothiazol-2-yl) amide] displayed a protein bound in “Plasma protein binding” greater than 99%. For the same compound, the “inhibition of CYP isozymes” value with CYP isozymes (14 different CYP isozymes) is “not an inhibitor”. Also, the “stability in human blood and plasma” value in data set [4] is “complete stability”. In addition, the oral absorption entry in “Rat PK study” and in the data set “Dog PK study” was “not orally absorbed” throughout.
`O=C(Nc1nccs1)c1ccccc1O` [Compound 16]: the “activity against HBV (in words)” value in data set [3] is listed as “complete loss of HBV activity”.
On to `CC(C)c1cnc(NC(=O)c2ccccc2O)s1` [Compound 17], for which the “activity against HBV (in words)” value in data set [3] is “inactive”.
`O=C(Nc1ncc(-c2ccc(Cl)cc2)s1)c1ccccc1O` [Compound 18]: the “activity against HBV (in words)” value in data set [3] was “inactive”.
On the same count and under the same terms, for `O=C(Nc1nc(-c2ccccc2)cs1)c1ccccc1O` [Compound 19] the value was “modest level of activity”.
In the case of `CC(=O)Nc1cnc(NC(=O)c2ccccc2O)s1` [Compound 23, 2-Hydroxybenzoyl-N-(5-acetamidothiazol-2-yl)amide], the “activity against HBV (in words)” value in [3] is “inactive”.
With `CS(=O)(=O)c1csc(NC(=O)c2ccccc2O)n1` [Compound 24], the “activity against HBV (in words)” value in data set [3] was “inactive”. Further, the “inhibition of HCV” value in the data set with HCV is recorded as “potent inhibitor”.
With `CS(=O)(=O)c1cnc(NC(=O)c2ccccc2O)s1` [Compound 25], in data set [3], the “activity against HBV (in words)” value was “inactive”.
Consider `N#Cc1cnc(NC(=O)c2ccccc2O)s1` [Compound 26], for which, in data set [3], the “activity against HBV (in words)” value is “slight activity”.
On the same count and under the same terms, for `COC(=O)c1cnc(NC(=O)c2ccccc2O)s1` [Compound 27] the value was “inactive”.
The same measure, in the same setting: the same measure for `O=C(Nc1ncc(C(F)(F)F)s1)c1ccccc1O` [Compound 28]: “slight activity”; for `CC(=O)Oc1ccccc1C(=O)Nc1ccc(Cl)cc1` [Compound 30]: “low potency”; for `O=C(Nc1ccc(Cl)cc1)c1ccccc1O` [Compound 31]: “lack of activity”.
Same read-out and setting: the same measure for `CC(=O)Oc1ccccc1C(=O)Nc1ccc(Br)cc1` [Compound 32]: “useful activity”; for `CC(=O)Oc1ccccc1C(=O)Nc1ccc(I)cc1` [Compound 33]: “useful activity”.
Regarding `O=C(Nc1ccc([N+](=O)[O-])cc1)c1ccccc1O` [Compound 34], the “activity against HBV (in words)” value in data set [3] is “inactive”.
The same measure, in the same setting: the same measure for `O=C(Nc1cc(C(F)(F)F)ccc1Cl)c1ccccc1O` [Compound 35]: “moderate activity”.
The same measure, in the same setting: for `CC(=O)Oc1ccccc1C(=O)Nc1cc(C(F)(F)F)cc(C(F)(F)F)c1` [Compound 36] the value was “moderate activity”.
On the same count and under the same terms, for `Cc1cc([N+](=O)[O-])c(Cl)cc1NC(=O)c1ccccc1O` [Compound 37] the value was “good activity”; for `CSc1cnc(NC(=O)c2ccccc2OC(C)=O)s1` [Compound 44], “inactive”.
Regarding `O=C(Nc1ncc([N+](=O)[O-])s1)c1ccccc1O[C@@H]1O[C@H](C(=O)O)[C@@H](O)[C@H](O)[C@H]1O` [Compound 58], in the data set on anaerobic bacteria [5], the “activity against anaerobic bacteria” value is listed as “moderate activity”. Further, the antiviral activity entry in data set [6] is reported as “essentially devoid of antiviral activity”.
By EC50 is commonly meant the concentration that produces a half-maximal response. Consider `O=C(Nc1ccc([N+](=O)[O-])cc1Cl)c1cc(Cl)ccc1O` [Niclosamide, reference compound], for which the “activity against HBV (in words)” value in [3] is “inactive”. The EC50 in data set [3] (Hepatitis B virus, read-out: EC50 (VIR)) is greater than 10 µM. Besides, the aqueous solubility result in data set [7] is listed as “poor”.
